Data published in patent publication US20200390754A1, “METHODS OF ADMINISTERING TOLPERISONE” (Neurana Pharmaceuticals, Inc., priority 2017, published 2020).

Experiments:
[1] = test system: male and female healthy volunteers; test: Country Vigilance-Divided Attention (CVDA) driving scenario on the CRCDS-MiniSim driving simulator; conditions: for Lane Exceedance (extent of driving outside of lanes) / Total Collisions: Tolperisone 450 mg, Cyclobenzaprine 30 mg, TID; for SDLP in driving simulation compared to placebo (words, FIG. 1): primary endpoint; for Reaction time on the divided attention test: Day 1, compared to placebo (placebo or cyclobenzaprine)
Description: Methodology: This was a randomized, placebo-controlled, multiple-dose 3-way cross-over study of the safety and cognitive effects of multiple doses of 150 mg tolperisone film-coated tablets (prepared according to methods described and referred to herein) administered three times daily (TID) in 31 male and female healthy volunteers. […] Subjects received 3 days of each treatment over three treatment periods. Subject participation was approximately 3 weeks as outpatients with 3 days each week as overnight clinic participants. Subjects were screened within 28 days prior to Treatment Period 1 (Visit 2) for eligibility for participation in the study. Subjects who met all inclusion/exclusion criteria were admitted to the clinic on Day 1 to be evaluated for continued eligibility. Subjects performed a practice trial with the driving simulator and the cognitive function test. Subjects were dosed on the morning of Day 1. Approximately one hour after the […] dose on Day 1, subjects were administered the cognitive test, followed by the driving simulator examination. On the morning of Day 2, prior to dosing, subjects were re-administered the cognitive test and driving examination to assess residual next day effects. Subjects repeated cognitive testing and the driving examination on the morning of Day 3, after administration of the AM study medication, to evaluate the cumulative effects of 3 days of dosing. Subjects were discharged on Day 3 with instructions to return to the clinic on […] to repeat the above procedure with the second and third treatments. A follow-up phone call was conducted 1 week (±3 days) following discharge from the clinic on Day 17 to assess for continued safety. The total duration of study participation was approximately 4 weeks (range 4-8 weeks), including Screening and Follow-up.
The pharmacodynamic measures included simulated driving performance as measured by SDLP using the Cognitive Research Corporation Driving Simulator-MiniSim (CRCDS-MiniSim), the Karolinska Sleepiness Scale, the CogScreen Symbol Digit Coding (SDC) test, a self-perceived safety to drive question, the Visual Analog Scale (VAS) to assess subject's motivation and self-appraisal of their driving performance, and an assessment of the relationship between single-dose plasma drug levels and driving performance. Blood samples for the determination of plasma tolperisone concentrations were drawn prior to each AM dosing on Days 1-3, 8-10, 15-17 and post-driving test (15-30 minutes after the drive) on Days 1, 8, and 15. Blood samples collected post-driving test on Days 3, 10, and 17 were drawn between 1.5 and 2 hours after the start of the drive (approximately 10:30 AM to 11:00 AM). Safety was assessed by the monitoring and recording of adverse events, vital sign measurements, clinical laboratory abnormalities, electrocardiograms (ECGs), pregnancy tests, and physical examinations.
The primary endpoint, SDLP, was analyzed using a mixed-model, repeated measures with fixed effects for sequence, period, and treatment, with repeated observations for subjects. An unstructured covariance structure and Kenward-Roger degrees of freedom was used. […] In addition, pair-wise within subject differences in SDLP greater than 4.4 cm in absolute value (equal to the previously found difference between placebo and 0.05% Blood Alcohol Content (BAC) for the CRCDS) were compared using McNemar's test. Pair-wise within subject differences in SDLP were also tested for symmetry about […] using the maximally selected McNemar test. P-values for significance testing of period and sequence effects are also provided. Pair-wise comparisons (hypothesis tests) of differences in least squares means, and 95% confidence intervals on differences will be provided for:
A 62.1 mile (100 km), monotonous, two-lane highway driving task that includes a secondary visual vigilance task (DA).

[2] = test system: male and female healthy volunteers; test: Safety: treatment emergent adverse events; type: in vivo, human; conditions: for Treatment Emergent Adverse Events: Cardiac / Treatment Emergent Adverse Events: Gastrointestinal Disorders / Treatment Emergent Adverse Events: General: Sluggishness / Treatment Emergent Adverse Events: Nervous System Disorders, Attention / Treatment Emergent Adverse Events: Nervous System Disorders, Dizziness / Treatment Emergent Adverse Events: Nervous System Disorders, Headache / Treatment Emergent Adverse Events: Nervous System Disorders, Lethargy / Treatment Emergent Adverse Events: Nervous System Disorders, Somnolence / Treatment Emergent Adverse Events: Psychiatric (Insomnia) / Treatment Emergent Adverse Events: Respiratory / Treatment Emergent Adverse Events: Skin: Tolperisone 450 mg, Cyclobenzaprine 30 mg; for number of Treatment Emergent Adverse Events (TEAEs) reported: n per treatment, 3 days of each treatment
Description: (§1) Subjects were dosed on the morning of Day 1.
Safety analysis was based on the safety population. Safety measures were summarized using descriptive statistics and listed for each subject. MedDRA thesaurus was used to map adverse events verbatim to preferred terms and body systems. WHOdrug thesaurus (Sep. 1, 2016) was used to map prior medication and concomitant medication verbatim to preferred terms and ATC Class.
The Principal Investigator was responsible for the monitoring of subjects' safety and reporting of all adverse events (AEs) and serious adverse events (SAEs). The study personnel reviewed subject-volunteered information related to subjective complaints, and reviewed all laboratory findings and queried the subject specifically for visits requiring hospitalization, procedures, laboratory follow-up, or unscheduled visits to see their physician. Each trial subject was questioned about AEs during treatment with study drug. All AEs were documented in the subject's source documents as well as on the appropriate case report form (CRF). The Investigator assessed and recorded any AE in detail on the AE CRF pages including a description of the event, the date of onset, severity, time course, duration and outcome, relationship of the AE to study drug, and an alternate etiology for events not considered “probably” related to study drug and any actions taken.

[3] = test system: male and female healthy volunteers; test: Karolinska Sleepiness Scale (KSS) test; type: in vivo, human; conditions: for Karolinska Sleepiness Scale (KSS): Tolperisone 450 mg, Cyclobenzaprine 30 mg, TID
Description: as §1
The Karolinska Sleepiness Scale (KSS) was used to assess subjective level of sleepiness. This is a subject self-report measure of situational sleepiness and provides an assessment of alertness/sleepiness at a particular point in time. […] Subjects indicated their level of alertness versus sleepiness according to the following scale:
The KSS assessment was performed immediately before and after the simulated driving test Subjects self-reported their KSS assessments and the scores were recorded in the case report form.

[4] = test system: male and female healthy volunteers; test: Digit Symbol Substitution Test (CogScreen Symbol Digit Coding); type: in vivo, human; conditions: Tolperisone 450 mg, Cyclobenzaprine 30 mg, TID
Description: as §1
This test is used to measure attention, visual scanning, working memory, and speed of information processing. SDC is a computer analogue of the conventional symbol-substitution task found in the WAIS-R Digit Symbol subtest and the Symbol Digit Modalities Test. Details of the use of the SDC are provided in the CogScreen® Examiner Manual, CogScreen LLC, 2016. CogScreen SDC endpoints include: • Number of correct responses; • Response Accuracy; and • Standard deviation of reaction time.

Structure (SMILES) | Average speed compared to placebo ([1]; in vivo) | Divided attention: number of Commission Errors compared to placebo ([1]; in vivo) | Divided attention: number of Correct Responses compared to placebo ([1]; in vivo) | Divided attention: number of Omission Errors ([1]; in vivo) | Total Collisions compared to placebo ([1]; in vivo) | SDLP in driving simulation compared to placebo (words, FIG. 1) [1] | Treatment Emergent Adverse Events: Cardiac [2] | Treatment Emergent Adverse Events: Gastrointestinal Disorders [2] | Treatment Emergent Adverse Events: General: Sluggishness [2] | Treatment Emergent Adverse Events: Nervous System Disorders, Attention [2] | Treatment Emergent Adverse Events: Nervous System Disorders, Dizziness [2] | Treatment Emergent Adverse Events: Nervous System Disorders, Headache [2] | Treatment Emergent Adverse Events: Nervous System Disorders, Lethargy [2] | Treatment Emergent Adverse Events: Nervous System Disorders, Somnolence [2] | Treatment Emergent Adverse Events: Psychiatric (Insomnia) [2] | Treatment Emergent Adverse Events: Respiratory [2] | Treatment Emergent Adverse Events: Skin [2] | number of Treatment Emergent Adverse Events (TEAEs) reported [2] | Karolinska Sleepiness Scale (KSS) ([3]; Day 1 (at Tmax)) | Karolinska Sleepiness Scale (KSS) ([3]; Next Day Residual) | further results
CN(C)CCC=C1c2ccccc2C=Cc2ccccc21 [Cyclobenzaprine, cyclobenzaprine] | did not differ significantly | non-significant | no significant effect | no increase | no significant increase | significantly impaired effect | 1 | 4 | 1 | 0 | 3 | 0 | 1 | 10 | 1 | 0 | 0 | 21 | 5.5 | 4.1 | Lane Exceedance Maximum and Duration of Exceedance compared to placebo ([1]; Cyc: Days 1 and 2, Tol: any time-point): significantly worse; Lane Exceedance (extent of driving outside of lanes) ([1]; Day 1 (at Tmax)): 3.6; Total Collisions ([1]; Day 1 (at Tmax)): 1.6; Speedings Ratio compared to placebo ([1]; Day 2 and 3): no significant effect; Lane Exceedance (extent of driving outside of lanes) ([1]; Next Day Residual): 3.2; Total Collisions ([1]; Next Day Residual): 0.4; Lane Exceedance (extent of driving outside of lanes) ([1]; Steady State): 2.9; Total Collisions ([1]; Steady State): 0.1; severe AE ([2]; in vivo): one severe AE of dizziness; KSS subjective sleepiness ([3]; Day 1): significantly more subjective sleepiness; KSS subjective sleepiness ([3]; Day 2 or Day 3): did not report feeling more sleepy; Karolinska Sleepiness Scale (KSS) ([3]; Steady State): 3.8; Symbol Digit Coding (SDC) Cognitive Research Version ([4]; Day 1 (at Tmax)): 66.4; Symbol Digit Coding (SDC) Cognitive Research Version ([4]; Next Day Residual): 66.7; Symbol Digit Coding (SDC) Cognitive Research Version ([4]; Steady State): 67.4
Cc1ccc(C(=O)C(C)CN2CCCCC2)cc1 (stereo not drawn) [Tolperisone, tolperisone] | did not differ significantly | non-significant | no significant effect | no increase | no significant increase | equivalent results | 0 | 1 | 0 | 1 | 1 | 1 | 0 | 5 | 0 | 1 | 0 | 15 | 3.5 | 4.0 | Reaction time on the divided attention test [1]: statistically significant improvement; Reaction time on the divided attention test ([1]; listed as Tol): significantly faster; Excessive Ay compared to placebo ([1]; in vivo): no significant increase; Lane Exceedance Maximum and Duration of Exceedance compared to placebo ([1]; in vivo): not seen; Speedings Count compared to placebo ([1]; in vivo): not significantly impacted; Speedings Ratio compared to placebo ([1]; in vivo): no significant effect; hangover effect the morning following nighttime dosing ([1]; in vivo): does not produce a hangover effect; majority of secondary driving endpoint measures compared to placebo ([1]; in vivo): no statistically significant difference; discontinuation due to AE ([2]; following the first day of dosing): one subject due to a moderate AE of a Crohn's Disease flare up; Karolinska Sleepiness Scale (KSS) ([3]; Steady State): 3.1; KSS self-reported sleepiness ([3]; any time-point): no significant increase; Symbol Digit Coding (SDC) Cognitive Research Version ([4]; Day 1 (at Tmax)): 66.6; Symbol Digit Coding (SDC) Cognitive Research Version ([4]; Next Day Residual): 69.3; Symbol Digit Coding (SDC) Cognitive Research Version ([4]; Steady State): 70.1
